From patent US12692238B2, “Substituted pyridazinone herbicides” (FMC CORPORATION, priority 2020, dated 2026)

How the values were obtained:
Assay type in all cases: in vivo
[1] = tested on: redroot pigweed (Amaranthus retroflexus); assay: Test A preemergence, redroot pigweed; conditions: 0 to 100 scale, 10 days
Summary of the method: (§1)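 Visual injury ratings on a 0 to 100 scale (0 no effect, 100 complete control) were made 10 days after treatment, relative to untreated controls. Test chemicals in a surfactant-containing non-phytotoxic solvent were applied to soil at planting or to one- to two-leaf plants 2 to 10 cm tall.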

[2] = tested on: ducksalad (Heteranthera limosa); assay: Test B flooded paddy test, ducksalad; conditions: Heteranthera limosa; 250 g ai/ha, Flood; visually evaluated after 10 to 14 days; read-out: Plant response rating, Ducksalad (0 to 100 scale where 0 is no effect and 100 is complete control)
Summary of the method: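 2-leaf plants; pots flooded to 3 cm; compound applied to paddy water; depth kept constant; greenhouse 10–14 d; visual rating vs untreated, 0 = no effect, 100 = complete control.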

[3] = tested on: redroot pigweed (Amaranthus retroflexus); assay: Test A postemergence, redroot pigweed; conditions: 10 days
Summary of the method: as §1

kochia (Bassia scoparia) = assay: Test A preemergence, kochia; conditions: Bassia scoparia, pre-emergence, 240 h, 0 to 100 scale, 10 days, read-out: Plant response rating, Kochia; for pest or weed control at 31 g/ha: 31 g ai/ha; for pest or weed control at 125 g/ha: 125 g ai/ha
Summary of the method: as §1

[4] = 31 g ai/ha, postemergence, 0 to 100 scale (0 no effect, 100 complete control)
[5] = Postemergence, 125 g ai/ha, 0 to 100 scale

Row | SMILES | Plant response rating, Pigweed, Redroot ([1]; 31 g ai/ha) | Plant response rating, Pigweed, Redroot ([1]; 125 g ai/ha) | pest or weed control at 250 g/ha [2] | Plant response rating, Pigweed, Redroot [3, 4] | Plant response rating, Pigweed, Redroot [3, 5] | pest or weed control at 31 g/ha (kochia (Bassia scoparia)) | pest or weed control at 125 g/ha (kochia (Bassia scoparia))
1 | CC(=O)OCOc1c(C)nn(C)c(=O)c1-c1c(Br)sc2ccc(F)cc12 [Compound 2, 5-[(acetyloxy)methoxy]-4-(2-bromo-5-fluorobenzo[b]thien-3-yl)-2,6-dimethyl-3(2H)-pyridazinone] | 90 | 100 | 20% | 80 | 90 | 20% | 50%
2 | CC(=O)OCOc1c(Cl)nn(C)c(=O)c1-c1c(C)ccc2ccc(C)cc12 [Compound 3, 5-[(Acetyloxy)methoxy]-6-chloro-4-(2,7-dimethyl-1-naphthalenyl)-2-methyl-3(2H)-pyridazinone] | 100 | 100 | 95% | 100 | 100 | 10% | 90%
3 | CC(=O)OCOc1c(Cl)nn(C)c(=O)c1-c1c2ccccc2cc2ccccc12 [Compound 10, 5-[(acetyloxy)methoxy]-4-(9-anthracenyl)-6-chloro-2-methyl-3(2H)-pyridazinone] | 100 | 100 | 95% | 100 | 100 | 0% | 0%
4 | CC(=O)OCOc1c(Cl)nn(C)c(=O)c1-c1c2ccccc2c(Cl)c2ccccc12 [Compound 11, 5-[(acetyloxy)methoxy]-6-chloro-4-(10-chloro-9-anthracenyl)-2-methyl-3(2H)-pyridazinone] | 100 | 100 | 80% | 100 | 100 | 0% | 10%
5 | CC(=O)OCOc1c(C)nn(C)c(=O)c1-c1c2cc(C)ccc2cc2ccc(F)cc12 [Compound 24, 5-[(acetyloxy)methoxy]-4-(2-fluoro-7-methyl-9-anthracenyl)-2,6-dimethyl-3(2H)-pyridazinone] | 100 | 100 | 75% | 100 | 100 | 70% | 90%
